In PMC5620575 (Pharmaceutics, 2017):
Values after ≈ are worked out from the molar mass of the structure shown.

Legend:
Escherichia coli = tested on: Escherichia coli; design: method as in PMID 12467705, PMID 15911326, PMID 17140706, PMID 19376613, PMID 23811087; conditions: cited from earlier work
S. aureus Giorgio = tested on: S. aureus Giorgio; design: method as in ref unpublished data from Jin-Hwan Kwak at Handong Global University; conditions: oral suspension 1 and 4 h after infection, survival recorded for 72 h; ref unpublished data from Jin-Hwan Kwak at Handong Global University; cited from earlier work
[1] = pharmacokinetics after single IV administration; type: in vivo; conditions: rabbit, 5 mg/kg; for AUC / half-life / k el: plasma; for AUC / half-life / CLT: n = 4; for k el: n = 4, read-out: Elimination rate constant (converted)
Description: IV administration of the compounds under investigation, and collection of blood samples were through a catheter inserted in the marginal ear vein of the rabbit (I-Cath, CharterMed Inc., Winston-Salem, NC, USA). After IV drug administration, blood was withdrawn to fill the cannula and then reinjected three times before obtaining any blood samples to prevent contamination. Furthermore, the cannula was flushed with heparinized saline to prevent blockage of the cannula and prevent sample to sample contamination.
Urine samples were collected utilizing Foly Catheter (size French 8). The catheter was inserted into the rabbit bladder using a lubricant. When urine is collected over a specific time interval, the bladder was irrigated with 3 × 15 mL normal saline at 3 min, 6 min, and 10 min before the end of the urine collection interval [15, 16]. Irrigation of the bladder is necessary to obtain the majority of the drug eliminated in urine during the collection interval.
Three groups of rabbits (n = 4, each) received 5 mg/kg dose of each compound via the IV catheter. This dose was selected based on the results of a preliminary experiment to achieve measurable plasma concentrations for 8 h using our analytical methods, to ensure good characterization of the plasma concentration-time profile. Accurately weighed Lzd and PH027 powder were dissolved first in 600 μL of ethanol using an ultrasound water bath. The resulting solution was then diluted with normal saline to produce the solutions used for IV administration, which consist of the dose of the compound dissolved in 3 mL of 20% ethanol in normal saline. PH051 required the use of slightly larger volume of ethanol to achieve complete dissolution. So, 900 μL of ethanol were used, and the resulting solution used for IV administration consisted of PH051 dose dissolved in 3 mL of 30% ethanol in normal saline. The difference in the volume of ethanol administered, 300 μL, which was necessary to ensure complete dissolution of PH051, should not have a significant effect on the pharmacokinetic behavior of PH051. The solutions were administered slowly over a period of […] administration, serial blood and urine samples were obtained over a period of 8 h. Plasma was obtained from blood by centrifugation, and samples were kept at −80 °C until analysis. The volumes of urine samples were determined and recorded, and aliquots were kept at −80 °C until analysis.
The pharmacokinetic parameters for each of the three compounds including half-life (t1/2), volume of distribution (Vd), elimination rate constant (k), area under the plasma concentration-time curve (AUC), total body clearance (CLT), renal clearance (CLR), and oral bioavailability (F) were determined using the general pharmacokinetic parameter calculation procedures using PKPD tools for Microsoft Excel. The obtained pharmacokinetic parameters for each compound were compared using Statistical Package of Social Sciences (SPSS) to determine the difference in the pharmacokinetic behavior for the three compounds.

Heamophilus influenzae = tested on: Heamophilus influenzae; design: method as in PMID 12467705, PMID 15911326, PMID 17140706, PMID 19376613, PMID 23811087; conditions: unit printed only for the neighbouring MICs of the sentence; cited from earlier work
[2] = solubility observed on preparing the oral dose in normal saline; type: physicochemical; conditions: 20 mg/kg oral dose in 20 mL of warm normal saline
Description: Three groups of rabbits (n = 4, each) received 20 mg/kg oral dose of each compound. […] Accurately weighted amounts of each compound were dissolved/suspended in 20 mL of warm normal saline using an ultrasound water bath. […] The solutions/suspensions of the three compounds were administered orally to the rabbits using a pediatric feeding tubes. After oral administration of each compound, serial blood samples were obtained through the IV catheter, over a period of 10 h after administration. Plasma was obtained from blood by centrifugation, and samples were kept at −80 °C until analysis.

For `O=C1O[C@@H](Cn2ccnn2)CN1c1ccc(N2CCOCC2)c(F)c1` [PH027], the MIC (Escherichia coli) is given as > 64 µg/mL, the “in vivo activity against systemic mice infection” value (S. aureus Giorgio) is given as “lower in vivo activity” and the AUC ([1]; White New Zealand) is given as 5670 ± 933 ng·h/mL. It also gave a half-life ([1]; White New Zealand) of 1.15 ± 0.202 h, a k el ([1]; White New Zealand) of 0.000168 s⁻¹ and a CL renal ([1]; White New Zealand, urine and plasma, from renal excretion rate and plasma drug concentration, read-out: Renal clearance (converted)) of 0.0633 mL/min/kg. The CLT [1] was 14.7 ± 3.83 mL/min/kg.
For `O=C1O[C@@H](Cn2ccnn2)CN1c1ccc(N2CCN(C(=O)C(F)(F)F)CC2)c(F)c1` [PH051], the MIC (Escherichia coli) is given as > 64 µg/mL, the MIC (Heamophilus influenzae) is given as 64 µg/mL (≈ 145 µM) and the “solubility (observed)” value [2] is given as “least water-soluble of the three compounds”. The “in vivo activity against systemic mice infection” value (S. aureus Giorgio) was “lower in vivo activity”, the AUC ([1]; White New Zealand) was 1950 ± 986 ng·h/mL and the half-life ([1]; White New Zealand) was 2.92 ± 0.768 h. For the same compound, the k el ([1]; White New Zealand) was 6.6e-05 s⁻¹, the CLT [1] was 42.73 ± 20.2 mL/min/kg and the “Fraction excreted unchanged in urine” value ([1]; ratio of renal clearance to total body clearance) was “only trace amounts”.
